We go through two molecules from patent publication US20230065562A1, “DUAL CONTROLS FOR THERAPEUTIC CELL ACTIVATION OR ELIMINATION” (Bellicum Pharmaceuticals, Inc., priority 2015, published 2023).

Data set [1] has as its system iCasp9M.IRES.IL-12-transduced EBV-CTLs. The data set can be described thus: IL-12 ELISA of iCasp9M.I.IL-12-transduced EBV-CTL supernatant. The settings on record: 10 nM CID; detection limit 7.8 pg/mL. The format is cell-based, human. On the procedure:
The concentration of interferon-[…] (IFN-[…]), IL-2, IL-4, IL-5, IL-10, and tumor necrosis factor-[…] (TNF[…]) in CTL culture supernatants was measured using the Human Th1/Th2 cytokine cytometric Bead Array (BD Pharmingen) and the concentration of IL-12 in the culture supernatants was measured by enzyme-linked immunosorbent assay (ELISA; R&D Systems, Minneapolis, Minn.) according to the instructions of the manufacturer.
To determine whether iCasp9M could effectively destroy cells genetically modified to express an active transgene product, the ability of iCasp9M to eliminate EBV-CTLs stably expressing IL-12 was measured. While IL-12 was undetectable in the supernatant of nontransduced and iCasp9M.IRES.GFP-transduced CTLs, the supernatant of iCasp9M.IRES.IL-12-transduced cells contained 324 pg/mL to 762 pg/mL IL-12. After administration of 10 nM CID, however, the IL-12 in the supernatant fell to undetectable levels (<7.8 pg/mL). Thus, even without prior sorting for high transgene expressing cells, activation of iCasp9M is sufficient to completely eliminate all T cells producing biologically relevant levels of IL-12. […] Three days after a second antigenic stimulation, the levels of IL-12 in the culture supernatant were measured by IL-12 ELISA (detection limit of this assay is 7.8 pg/mL). […]

For a further data set, the system named is non-transduced cells. As to the kind of experiment: AP20187 on non-transduced cells (annexin V/7-AAD viability). The format is cell-based, human. On the procedure:
Suicide gene functionality was assessed by adding a small molecule synthetic homodimerizer, AP20187 (Ariad Pharmaceuticals; Cambridge, Mass.), at 10 nM final concentration the day following CD19 immunomagnetic selection. Cells were stained with annexin V and 7-amino-actinomycin (7-AAD)(BD Pharmingen) at 24 hours and analyzed by flow cytometry. Cells negative for both annexin V and 7-AAD were considered viable, cells that were annexin V positive were apoptotic, and cells that were both annexin V and 7-AAD positive were necrotic. The percentage killing induced by dimerization was corrected for baseline viability as follows: Percentage killing=100%−(% Viability in AP20187-treated cells÷% Viability in nontreated cells).
The day following immunomagnetic selection, 10 nM of the chemical inducer of dimerization, AP20187, was added to induce apoptosis, which appeared within 24 hours. […] Killing efficiency after correction for baseline viability was about 92.9%±3.8%. Large-scale CD19 selection produced cells that were killed with similar efficiency as small-scale selection: mean viability with and without AP20187, and percentage killing, in large and small scale were about 3.9%, about 84.0%, about 95.4% (n=3) and about 6.6%, about 79.3%, about 91.4% (n=5) respectively. […]

The next data set relates to 293T cells. The data set can be described thus: SeAP reporter assay: iC9 without FRB-Caspase-9 (controls). Format: cell-based. The settings on record: iC9 with control vector or FRB without caspase fusion. The text has this:
(FIGS. 39 and 40). iC9 (FKBPv12-Caspase-9) was cotransfected with a control vector expressing only an epitope tag (FIG. 39) or a vector containing FRB without caspase fusion, but instead with a short, irrelevant tag (FIG. 40).
FIG. 39—FRB-Caspase-9 is required for a rapamycin-induced cell death switch. 293T cells were transfected with SRα-SeAP (pBP0046), pS-NLS-E and pSH1-FKBPv12-Caspase9 (pBP0044).
FIG. 40—Caspase-9 fusion with FRB is required for a rapamycin-induced cell death switch. 293T cells were transfected with SRα-SeAP (pBP0046), pSH1-FRBL-VP16 (pBP0731) (4) and pSH1-FKBPv12-Caspase9 (pBP0044). […] Loss of reporter activity is a proxy for the loss of cell viability. Reporter activity is expressed as a percentage of the average of 8 wells containing no drug. Drug-containing wells were assayed in triplicate wells.

The subject of data set [2] is transduced T cells (human PBMCs). As to the kind of experiment: IL-6 ELISA as indicator of MC activity in transduced T cells. Format: cell-based.
Data set [3] has as its system iRmC9 T cells (pBP1327, GFP-Fluc). As to the kind of experiment: Drug titration of rimiducid and rapamycin in mice bearing iRmC9 T cells. Format: in vivo, mouse. The settings on record: NSG mice; rimiducid 0.00005-5 mg/kg or rapamycin 0.0001-10 mg/kg i.p.; FIGS. 110B & C. On the procedure:
In this experiment, iRmC9 T cells were produced by co-transduction with pBP1327 and GFP-Fluc retroviruses from donor 584. […] Ten million iRmC9 T cells were injected IV per mouse (Table 10) (time=−14 hr). […] Vehicle groups received either PBS, 25% solutol in PBS or 5% DMA in PT. IVIS imaging was performed at −10, 0, 6, and 24 hours. Mice were sacrificed and spleens were collected for FACS analysis with hCD3, hCD19 and mCD45 antibodies. […] This observation is similar to that observed in the previous experiment (FIG. 109B) and could be due to the components of the PT.
FIG. 110. […] PBMCs from donor 584 were activated and co-transduced with retroviruses encoding the pBP1327 vector and the GFP-Fluc plasmid. (FIG. 110A) Ten days post-transduction, the cells were analyzed for CD19 and GFP transduction efficiency prior to injection into mice. (FIGS. 110B & C) NSG mice were injected i.v. with 1×10^7 T cells co-transduced with GFP-Fluc per mouse and suicide drugs were injected i.p. the next day. Bioluminescence of cells was assessed at −10, 0, 6, and 24 hours post drug administration. (FIG. 110D) At 24 h post-drug treatment, mice were euthanized and spleens were collected for flow cytometry analysis with antibodies to hCD3, […], and mCD45.

A further data set addresses iRC9 (pBP1310 & 1311) (Homo sapiens, UniProt P42345+P62942). As to the kind of experiment: SRα-SEAP assay of drug specificity, iRC9 switch, 293 cells. The settings on record: SRα-SEAP reporter, FIG. 108A.

Chain of iRC9 (pBP1310 & 1311) (P42345 2025-2113): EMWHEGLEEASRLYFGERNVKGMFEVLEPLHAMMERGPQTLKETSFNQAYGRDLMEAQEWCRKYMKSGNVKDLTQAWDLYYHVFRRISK
Chain of iRC9 (pBP1310 & 1311) (P62942 2-107): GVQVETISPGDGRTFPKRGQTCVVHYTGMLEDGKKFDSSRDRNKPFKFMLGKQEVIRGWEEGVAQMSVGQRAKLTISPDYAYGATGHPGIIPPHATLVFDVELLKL
Chain of iRC9 (pBP1310 & 1311) (P55211 135-416 partner limits assumed): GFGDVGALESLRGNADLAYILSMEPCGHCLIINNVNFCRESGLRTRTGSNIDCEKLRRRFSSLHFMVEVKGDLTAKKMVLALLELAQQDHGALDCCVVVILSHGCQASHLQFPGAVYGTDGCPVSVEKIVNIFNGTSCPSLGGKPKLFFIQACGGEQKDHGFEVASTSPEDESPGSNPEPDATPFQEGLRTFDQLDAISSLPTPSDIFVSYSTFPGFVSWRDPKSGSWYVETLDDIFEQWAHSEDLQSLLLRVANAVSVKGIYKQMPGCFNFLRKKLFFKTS

For `CC[C@H](C(=O)N1CCCC[C@H]1C(=O)O[C@H](CCc1ccc(OC)c(OC)c1)c1cccc(OCC(=O)NCC(CNC(=O)COc2cccc([C@@H](CCc3ccc(OC)c(OC)c3)OC(=O)[C@@H]3CCCCN3C(=O)[C@@H](CC)c3cc(OC)c(OC)c(OC)c3)c2)CN(C)C)c1)c1cc(OC)c(OC)c(OC)c1` [AP20187], the “IL-12 in the supernatant after CID” value in data set [1] is below 7.8 pg/mL. The “toxicity to non-transduced cells” value in the data set on non-transduced cells is “non-toxic”. The “viability with AP20187” value in the data set on non-transduced cells (non-transduced cells (n=6)) is recorded as “about 86%±9”.

In the case of `CC[C@H](C(=O)N1CCCC[C@H]1C(=O)O[C@H](CCc1ccc(OC)c(OC)c1)c1cccc(OCC(=O)NCCNC(=O)COc2cccc([C@@H](CCc3ccc(OC)c(OC)c3)OC(=O)[C@@H]3CCCCN3C(=O)[C@@H](CC)c3cc(OC)c(OC)c(OC)c3)c2)c1)c1cc(OC)c(OC)c(OC)c1` [rimiducid], the “cell death (loss of SeAP reporter) without FRB-Caspase-9” value in the data set with 293T cells is “effectively permitted homodimerization and induction of Caspase-9”. Besides, the “MC activity (secreted IL-6) in iMC+CARζ-T cells” value in data set [2] (24 hours) is listed as “stimulated strongly”. For the same molecule, the “MC activity (secreted IL-6) in MC-rap-T cells” value in data set [2] (pBP1440, 24 hours) is reported as “not stimulated”. Also, the “IVIS imaging of iRmC9 T cells in dose titration” value in data set [3] is on record as “dose-dependent removal”. The “ligand required to activate the iRC9 switch” value at iRC9 (pBP1310 & 1311) is listed as above 100 nM.
